Assay results taken from article PMC10003107, “Selectivity of Hydroxamate- and Difluoromethyloxadiazole-Based Inhibitors of Histone Deacetylase 6 In Vitro and in Cells” (International Journal of Molecular Sciences, 2023).
Values joined by “and” are separate entries in the source; they are usually repeats but may differ in a detail not shown here. Equal entries are not always repeated.

Tests used:
HDAC6 = target: T1, HDAC6 (Homo sapiens, UniProt Q9UBN7); experiment: In vitro deacetylation assay, HDAC6 (GAK substrate); type: biochemical; details: for EC50: Figure 2C, in vitro data in μM; for IC50: purified human HDAC6, Ac-GAK-Ac-AMC (GAK) substrate 10 µM
T1 construct: HDAC6 2-1215 Open Biosystems; Strep-FLAG-HALO (N); made in house; host or cells: HEK293/T17
T1 sequence (Q9UBN7 2-1215): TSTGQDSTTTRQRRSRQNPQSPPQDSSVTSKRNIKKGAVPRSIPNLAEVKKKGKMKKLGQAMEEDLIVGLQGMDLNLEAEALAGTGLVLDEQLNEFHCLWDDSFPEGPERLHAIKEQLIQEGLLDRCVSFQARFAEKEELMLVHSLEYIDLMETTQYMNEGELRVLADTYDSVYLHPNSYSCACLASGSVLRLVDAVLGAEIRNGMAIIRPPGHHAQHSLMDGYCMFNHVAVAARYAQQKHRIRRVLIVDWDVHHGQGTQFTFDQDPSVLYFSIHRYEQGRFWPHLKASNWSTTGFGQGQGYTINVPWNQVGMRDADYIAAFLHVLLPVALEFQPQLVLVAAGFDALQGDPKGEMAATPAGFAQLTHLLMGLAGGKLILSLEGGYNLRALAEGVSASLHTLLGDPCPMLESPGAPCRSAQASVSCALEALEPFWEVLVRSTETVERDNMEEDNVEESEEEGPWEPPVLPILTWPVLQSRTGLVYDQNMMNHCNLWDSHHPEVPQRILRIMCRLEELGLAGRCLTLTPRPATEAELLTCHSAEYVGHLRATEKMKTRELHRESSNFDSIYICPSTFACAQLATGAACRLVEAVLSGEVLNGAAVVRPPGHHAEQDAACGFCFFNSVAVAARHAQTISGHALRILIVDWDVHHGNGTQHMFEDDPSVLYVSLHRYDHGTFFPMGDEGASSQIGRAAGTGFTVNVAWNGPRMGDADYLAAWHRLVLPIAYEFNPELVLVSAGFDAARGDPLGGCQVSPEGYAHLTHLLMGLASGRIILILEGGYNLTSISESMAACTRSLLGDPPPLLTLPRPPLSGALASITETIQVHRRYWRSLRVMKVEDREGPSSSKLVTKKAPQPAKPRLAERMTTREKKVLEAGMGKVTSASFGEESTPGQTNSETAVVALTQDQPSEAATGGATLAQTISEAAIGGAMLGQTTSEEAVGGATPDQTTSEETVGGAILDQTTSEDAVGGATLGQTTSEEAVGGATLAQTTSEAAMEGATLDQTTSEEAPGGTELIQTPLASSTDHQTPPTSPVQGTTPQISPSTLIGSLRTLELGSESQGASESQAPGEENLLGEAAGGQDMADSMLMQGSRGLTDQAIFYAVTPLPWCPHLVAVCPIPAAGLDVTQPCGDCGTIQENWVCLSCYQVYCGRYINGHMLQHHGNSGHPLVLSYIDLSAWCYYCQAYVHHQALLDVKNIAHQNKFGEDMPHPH

HDAC1 = target: T2, HDAC1 (Homo sapiens, UniProt Q13547); experiment: In vitro deacetylation assay, HDAC1 (GAK substrate); type: biochemical; details: for IC50: purified human HDAC1, GAK substrate 10 µM
T2 construct: HDAC1 1-482 Addgene; Strep-FLAG-HALO (N); made in house; host or cells: HEK293/T17
T2 sequence (Q13547 whole entry): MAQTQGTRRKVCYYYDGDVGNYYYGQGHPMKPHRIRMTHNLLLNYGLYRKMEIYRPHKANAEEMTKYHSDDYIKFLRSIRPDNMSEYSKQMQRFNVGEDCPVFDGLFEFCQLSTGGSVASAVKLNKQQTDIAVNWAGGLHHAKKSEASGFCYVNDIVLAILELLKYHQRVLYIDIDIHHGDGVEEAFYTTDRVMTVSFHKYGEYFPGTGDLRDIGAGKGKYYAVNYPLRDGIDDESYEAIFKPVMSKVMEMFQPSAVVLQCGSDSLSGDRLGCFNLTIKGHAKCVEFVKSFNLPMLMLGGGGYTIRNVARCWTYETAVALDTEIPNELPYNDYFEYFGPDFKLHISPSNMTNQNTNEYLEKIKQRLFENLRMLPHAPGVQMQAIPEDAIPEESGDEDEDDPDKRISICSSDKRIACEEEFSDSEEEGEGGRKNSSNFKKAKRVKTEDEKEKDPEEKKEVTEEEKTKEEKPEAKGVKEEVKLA

MTT viability assay = type: cell-based; details: human, RPMI-8226 lymphoblasts, RPMI-8226 cells, read-out: EC50 cytotoxicity (MTT viability)
Procedure: (§1) RPMI-8226 lymphoblasts (ATTC #CCL-155) were used to assess the cytotoxicity of tested compounds. […] Dilution series of tested inhibitors were prepared as 10x stock solutions in PBS and 10 μL was added to cells and incubated under a 5% CO2 atmosphere at 37 °C, for 2 days. Following incubation, 10 μL of MTT reagent (3-(4,5-dimethylthiazol-2-yl)-2,5-diphenyltetrazolium bromide, 5 mg/mL in PBS, Sigma Aldrich) was added to each well and incubated for 90 min, 37 °C, 5% CO2. […]

histone H3 acetylation = experiment: Histone H3 (K9/K14) acetylation in RPMI-8226 cells by Western blotting; type: cell-based; details: 6 h, Western blot
all other HDAC isoforms = experiment: In vitro isotype selectivity screening against panel of zinc-dependent human HDACs; type: biochemical
Procedure: Customized assays were used for individual HDAC isoforms to reflect their distinct substrate specificity. All reactions were carried out in the activity buffer comprising 50 mM HEPES, 140 mM NaCl, 10 mM KCl, pH 7.4 supplemented with 1 mg/mL bovine serum albumin (BSA) and 1 mM tris(2-carboxyethyl) phosphine (TCEP).
HDACs 1–9, 11: Assays were performed essentially as described previously. Briefly, the Ac-GAK-Ac-AMC substrate was used to determine the activity of HDACs 1, 2, 3, and 6; and the Boc-Lys(TFA)-AMC substrate was used for HDACs 4, 5, 7, 8, 9, and 11 (both substrates Bachem, Bubendorf, Switzerland). […] Released aminometyl coumarine was quantified using a CLARIOstar plate reader (BMG Labtech GmbH, Ortenberg, Germany) at λex/λem = 365/440 nm.
HDAC10: Recombinant human HDAC10 (0.5 nM) in the reaction buffer was preincubated with a 3-fold dilution series of a tested inhibitor at 37 °C for 15 min and the reaction initiated by the addition of a substrate (N8-acetylspermidine labeled with fluorescein; 10 µM final concentration) in a total volume of 50 µL. […] Reaction mixtures were analyzed by RP-HPLC with a Kinetex 2.6 μm XB-C18 100 Å column with a fluorescence detector set to λEX/λEM = 492/516.
HDAC inhibition was calculated using corresponding non-inhibited reactions as a control. […]

RPMI-8226 lymphoblasts = experiment: MTT viability assay; type: cell-based; details: RPMI-8226 cells, 48 h, MTT
Procedure: as §1

| EC50 (HDAC6) | IC50 (HDAC6) | EC50 (HDAC1; Figure 2C, in vitro data (GAK) in μM) | IC50 (HDAC1) | SI (HD6/HD1) GAK, in vitro (HDAC1; ratio of IC50 HDAC1 (GAK) divided by IC50 HDAC6) | Structure (SMILES) | EC50 at 48 h (MTT viability assay) | effect on histone H3 (K9/K14) acetylation, class I HDAC inhibition (histone H3 acetylation) | selectivity for HDAC6 over all other HDAC isoforms (all other HDAC isoforms) | effect on cell viability (RPMI-8226 lymphoblasts) |
| --- | --- | --- | --- | --- | --- | --- | --- | --- | --- |
| 0.0011 µM | 1.11 nM | 1.19 µM | 1190 nM | 1076 | O=C(NO)c1cnc(NC2(c3cccc(F)c3)CCCCC2)nc1 [ACY-775] | 8600 nM |  |  |  |
| 0.0021 µM | 2.1 nM and 2.06 nM |  | > 50000 nM |  | CS(=O)(=O)N(Cc1ccc(-c2nnc(C(F)F)o2)cn1)c1cccc(Cl)c1 [compound 7, N-(3-chlorophenyl)-N-((5-(5-(difluoromethyl)-1,3,4-oxadiazol-2-yl)pyridin-2-yl)methyl)methanesulfonamide] | > 50000 nM | does not increase H3 acetylation even at the highest concentrations | 10,000 fold and > 10,000 fold | less pronounced effects on cell viability at high inhibitor concentrations |
